The source of these data is ChEMBL document CHEMBL3286349 (Bioorg Med Chem Lett, 2014).

Active and inactive are the calls of the source. No cut-off for these calls is given here. Residues, ends and D or L forms follow the SMILES beside them.

Assay [1] deals with T1, Peroxisome proliferator-activated receptor alpha (Rattus norvegicus) (UniProt P37230).
T1 sequence (whole entry): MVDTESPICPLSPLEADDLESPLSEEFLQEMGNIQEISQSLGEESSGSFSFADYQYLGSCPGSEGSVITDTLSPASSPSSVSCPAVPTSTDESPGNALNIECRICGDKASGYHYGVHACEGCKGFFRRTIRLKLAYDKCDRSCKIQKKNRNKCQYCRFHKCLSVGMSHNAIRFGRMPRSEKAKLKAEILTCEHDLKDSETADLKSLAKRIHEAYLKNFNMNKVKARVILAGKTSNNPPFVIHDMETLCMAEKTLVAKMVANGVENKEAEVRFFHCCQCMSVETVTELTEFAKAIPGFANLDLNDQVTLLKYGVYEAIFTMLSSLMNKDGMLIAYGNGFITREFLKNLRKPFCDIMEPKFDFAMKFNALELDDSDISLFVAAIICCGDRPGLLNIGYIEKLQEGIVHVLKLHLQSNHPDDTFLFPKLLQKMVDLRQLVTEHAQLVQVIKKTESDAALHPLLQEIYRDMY
Nature of the assay: Agonist activity at PPARalpha in lipid loaded rat HII4E cells assessed as induction of fatty acid uptake at 1 uM after 24 hrs by flow cytometry analysis relative to control. The format is cell-based.

In assay [2] the target is T1, Peroxisome proliferator-activated receptor alpha (Rattus norvegicus). Nature of the assay: Agonist activity at PPARalpha in lipid loaded rat HII4E cells assessed as increase of FATP4 gene expression at 100 uM after 24 hrs by qPCR analysis relative to control. Format: cell-based. A general note: Quantitative PCR measures a nucleic acid by following its amplification.

Assay [3] shares this target. Nature of the assay: Agonist activity at PPARalpha in lipid loaded rat HII4E cells assessed as induction of fatty acid uptake at 100 to 500 uM after 24 hrs by flow cytometry analysis relative to control. Format: cell-based. A general note: A flow cytometer gives signals particle by particle.
Assay [4] addresses T2, Peroxisome proliferator-activated receptor alpha (Homo sapiens, UniProt Q07869).
T2 sequence (Q07869 whole entry): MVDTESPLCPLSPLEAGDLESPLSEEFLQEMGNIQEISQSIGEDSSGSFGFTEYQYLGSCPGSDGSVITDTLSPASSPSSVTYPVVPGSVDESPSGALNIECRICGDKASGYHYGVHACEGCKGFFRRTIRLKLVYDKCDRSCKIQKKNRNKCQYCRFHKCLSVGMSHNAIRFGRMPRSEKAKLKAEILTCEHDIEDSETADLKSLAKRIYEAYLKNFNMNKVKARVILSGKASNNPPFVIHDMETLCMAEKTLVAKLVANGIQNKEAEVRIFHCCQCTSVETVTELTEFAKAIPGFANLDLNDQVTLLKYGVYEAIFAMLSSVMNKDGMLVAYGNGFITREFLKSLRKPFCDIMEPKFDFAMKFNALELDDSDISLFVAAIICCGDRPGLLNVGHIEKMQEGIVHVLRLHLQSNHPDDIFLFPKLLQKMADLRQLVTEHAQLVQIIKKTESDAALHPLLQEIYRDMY
Nature of the assay: Binding affinity to PPARalpha LBD (unknown origin) by surface plasmon resonance assay. A general note: SPR reads the build-up and loss of mass on a sensor chip optically.

Assay [5] has as its target T1, Peroxisome proliferator-activated receptor alpha (Rattus norvegicus). Nature of the assay: Agonist activity at PPARalpha in lipid loaded rat HII4E cells assessed as induction of transcriptional activity at 100 uM after 24 hrs by qPCR analysis relative to control. Format: cell-based.
For assay [6] the target is unchanged. Briefly: Agonist activity at PPARalpha in lipid loaded rat HII4E cells assessed as reduction of intracellular triglyceride level at 500 uM after 24 hrs relative to control. Format: cell-based. Set-up: scale not given: the % may be the effect or the level left.
Assay [7] in a line: Reduction of intracellular cholesterol level in lipid loaded rat HII4E cells expressing PPARalpha siRNA at 10 to 500 uM after 24 hrs. The format is functional, cell-based.
Assay [8] can be described thus: Reduction of intracellular triglyceride level in lipid loaded rat HII4E cells expressing PPARgamma siRNA after 24 hrs. The format is functional, cell-based.
A short description of assay [9]: Reduction of intracellular cholesterol level in lipid loaded rat HII4E cells expressing PPARgamma siRNA after 24 hrs. Format: functional, cell-based.
For assay [10], the target named is T1, Peroxisome proliferator-activated receptor alpha (Rattus norvegicus). Nature of the assay: Agonist activity at PPARalpha in lipid loaded rat HII4E cells assessed as increase of FATP4 gene expression at 500 uM after 24 hrs by qPCR analysis relative to control. Format: cell-based.
For assay [11] the target is unchanged. Briefly: Agonist activity at PPARalpha in lipid loaded rat HII4E cells assessed as increase of acyl-CoA synthetase gene expression at 100 uM after 24 hrs by qPCR analysis relative to control. Format: cell-based.
The target is the same in assay [12]. Briefly: Agonist activity at PPARalpha in lipid loaded rat HII4E cells assessed as reduction of intracellular triglyceride level at 100 uM after 24 hrs relative to control. The format is cell-based. More on the design: scale not given: the % may be the effect or the level left.
Assay [13] has the same target. Briefly: Agonist activity at PPARalpha in lipid loaded rat HII4E cells assessed as induction of transcriptional activity at 500 uM after 24 hrs by qPCR analysis relative to control. The format is cell-based.
The target in assay [14] is T3, Peroxisome proliferator-activated receptor alpha (Homo sapiens) (UniProt Q07869).
T3 sequence (whole entry): T2 sequence (Q07869 whole entry)
Briefly: Agonist activity at PPARalpha (unknown origin) expressed in CHOK1 cells assessed as induction of transactivation activity at 500 uM after 24 hrs by luciferase reporter gene assay relative to control. Format: cell-based. The note with it: CHO-K1.

The target of assay [15] is T1, Peroxisome proliferator-activated receptor alpha (Rattus norvegicus). Briefly: Agonist activity at PPARalpha in lipid loaded rat HII4E cells assessed as reduction of intracellular cholesterol level at 100 uM after 24 hrs relative to control. The format is cell-based. Set-up: scale not given: the % may be the effect or the level left.
The target is the same in assay [16]. Briefly: Agonist activity at PPARalpha in lipid loaded rat HII4E cells assessed as reduction of intracellular cholesterol level after 24 hrs. Format: cell-based.
The target is the same in assay [17]. Nature of the assay: Agonist activity at PPARalpha in lipid loaded rat HII4E cells assessed as increase of acyl-CoA synthetase gene expression at 500 uM after 24 hrs by qPCR analysis relative to control. The format is cell-based.
Assay [18] has as its target T2, Peroxisome proliferator-activated receptor alpha. Briefly: Agonist activity at PPARalpha LBD (unknown origin) assessed as induction of PGC1alpha co-activator activity by TR-FRET analysis.
For assay [19], the target named is T1, Peroxisome proliferator-activated receptor alpha (Rattus norvegicus). Briefly: Agonist activity at PPARalpha in lipid loaded rat HII4E cells assessed as reduction of intracellular cholesterol level at 500 uM after 24 hrs relative to control. The format is cell-based. More on the design: scale not given: the % may be the effect or the level left.
The target is the same in assay [20]. Nature of the assay: Agonist activity at PPARalpha in lipid loaded rat HII4E cells assessed as increase of CPT1 gene expression at 500 uM after 24 hrs by qPCR analysis relative to control. The format is cell-based.
The target in assay [21] is T3, Peroxisome proliferator-activated receptor alpha (Homo sapiens). Nature of the assay: Agonist activity at PPARalpha (unknown origin) expressed in CHOK1 cells assessed as induction of transactivation activity at 100 uM after 24 hrs by luciferase reporter gene assay relative to control. Format: cell-based. The note with it: CHO-K1.
Assay [22] addresses T1, Peroxisome proliferator-activated receptor alpha (Rattus norvegicus). Briefly: Agonist activity at PPARalpha in lipid loaded rat HII4E cells assessed as increase of ACOX gene expression at 500 uM after 24 hrs by qPCR analysis relative to control. Format: cell-based.
A short description of assay [23]: Reduction of intracellular triglyceride level in lipid loaded rat HII4E cells expressing PPARalpha siRNA at 10 to 500 uM after 24 hrs. The format is functional, cell-based.

As for `CC(C)(Sc1ccc(CCN(CCCCC2CCCCC2)C(=O)NC2CCCCC2)cc1)C(=O)O`, the result in assay [1] was Active.
Take `N[C@@H](Cc1c[nH]c2ccccc12)C(=O)N[C@@H](CCC(=O)O)C(=O)O` (H-Trp-Glu-OH): the fold change (FC) in assay [2] came to 1.6; in assay [3] it was 1.2; in assay [5], 1.8; in assay [10], 1.7; in assay [11] it was 1.4; in assay [13] it was 1.9. The fold change (FC) in [17] is 1.5; in assay [20] it was 1.6; in assay [22] it was 1.4. In addition, binding in assay [4] was characterised by a dissociation constant (Kd) of 120 µM. The Activity is 16% in [6]; “Dose-dependent effect” in assay [8]; “Dose-dependent effect” in assay [9]; 14% in assay [12]; 62% in [14]; 14% in assay [15]. Moreover, the Activity result was “Dose-dependent effect” in assay [16], 21% in assay [19] and 53% in [21]. Also, the result in [7] and in assay [23] was inactive. The EC50 in assay [18] was found to be 83.4 µM.

One may read the Kd as the constant that tells how readily two partners part at equilibrium. By EC50 is commonly meant the concentration that produces a half-maximal response.
